Reference: US11590089B2, “Beta-2 selective adrenergic receptor agonists” (The Board of Trustees of the Leland Stanford Junior …, priority 2017, dated 2023)
Structures can show the parent of a compound that is named as a salt. Where two headings read alike, the source gives them in different places.

Tests used:
β2-AR [1] = target: T1, β2-AR (Homo sapiens, UniProt P07550); test: radioligand binding assay, β2-AR, [3H]CGP12177
Protocol: (§1) The binding affinities of exemplary compounds of interest at β1AR and β2AR were evaluated in a binding assay.
Target sequence in this assay (P07550 whole entry): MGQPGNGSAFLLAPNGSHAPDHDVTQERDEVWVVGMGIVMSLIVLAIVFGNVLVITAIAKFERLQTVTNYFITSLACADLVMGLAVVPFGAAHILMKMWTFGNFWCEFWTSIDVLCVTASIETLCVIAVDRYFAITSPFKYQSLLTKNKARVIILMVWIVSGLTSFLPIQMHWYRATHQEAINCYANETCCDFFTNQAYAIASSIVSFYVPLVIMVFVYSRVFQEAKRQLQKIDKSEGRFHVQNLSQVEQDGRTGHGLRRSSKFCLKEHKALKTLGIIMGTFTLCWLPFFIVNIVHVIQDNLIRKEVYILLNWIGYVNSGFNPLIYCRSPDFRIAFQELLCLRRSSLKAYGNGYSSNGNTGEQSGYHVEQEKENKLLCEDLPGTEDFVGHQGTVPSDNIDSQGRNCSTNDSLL

β1-AR [2] = target: T2, β1-AR (Homo sapiens, UniProt P08588); test: radioligand binding assay, β1-AR, [3H]CGP12177; settings: values given as a range are from screening experiments with a low number of repeats
Protocol: as §1
Target sequence in this assay (P08588 whole entry): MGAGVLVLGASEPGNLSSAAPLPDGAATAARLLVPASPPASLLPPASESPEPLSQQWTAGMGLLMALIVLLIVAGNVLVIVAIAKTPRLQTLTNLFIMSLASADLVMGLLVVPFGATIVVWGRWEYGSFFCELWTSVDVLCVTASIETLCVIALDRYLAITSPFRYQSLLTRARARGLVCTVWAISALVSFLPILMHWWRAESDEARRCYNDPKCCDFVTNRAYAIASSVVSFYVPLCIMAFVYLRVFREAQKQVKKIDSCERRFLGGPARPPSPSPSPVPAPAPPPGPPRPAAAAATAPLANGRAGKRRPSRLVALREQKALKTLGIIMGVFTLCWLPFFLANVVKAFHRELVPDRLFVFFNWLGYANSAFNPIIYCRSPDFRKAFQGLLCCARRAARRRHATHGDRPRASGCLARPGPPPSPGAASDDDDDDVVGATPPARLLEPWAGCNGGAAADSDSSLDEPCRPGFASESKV

β1-AR [3] = target: T2, β1-AR; test: β-arrestin-2 recruitment assay at β1-AR; format: cell-based; settings: for β-arrestin-2 recruitment β1-AR Emax: relative to norepinephrine
Target sequence in this assay (P08588 whole entry): as above
Target sequence in this assay (P32121 whole entry partner): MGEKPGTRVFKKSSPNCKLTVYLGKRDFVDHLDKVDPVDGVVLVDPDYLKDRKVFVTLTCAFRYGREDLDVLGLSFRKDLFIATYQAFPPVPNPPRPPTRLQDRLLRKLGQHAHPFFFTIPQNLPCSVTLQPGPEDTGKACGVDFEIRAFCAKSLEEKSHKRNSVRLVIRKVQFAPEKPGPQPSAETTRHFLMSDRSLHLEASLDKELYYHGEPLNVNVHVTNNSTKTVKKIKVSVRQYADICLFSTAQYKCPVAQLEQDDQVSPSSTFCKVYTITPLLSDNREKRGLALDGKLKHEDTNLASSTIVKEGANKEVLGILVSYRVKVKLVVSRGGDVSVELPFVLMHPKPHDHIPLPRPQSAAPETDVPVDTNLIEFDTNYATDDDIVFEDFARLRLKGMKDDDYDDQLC

•1A-AR = target: T3, •1A-AR (Homo sapiens, UniProt P35348); test: radioligand binding assay, α1A-AR, [3H]prazosin
T3 sequence (P35348 1-466): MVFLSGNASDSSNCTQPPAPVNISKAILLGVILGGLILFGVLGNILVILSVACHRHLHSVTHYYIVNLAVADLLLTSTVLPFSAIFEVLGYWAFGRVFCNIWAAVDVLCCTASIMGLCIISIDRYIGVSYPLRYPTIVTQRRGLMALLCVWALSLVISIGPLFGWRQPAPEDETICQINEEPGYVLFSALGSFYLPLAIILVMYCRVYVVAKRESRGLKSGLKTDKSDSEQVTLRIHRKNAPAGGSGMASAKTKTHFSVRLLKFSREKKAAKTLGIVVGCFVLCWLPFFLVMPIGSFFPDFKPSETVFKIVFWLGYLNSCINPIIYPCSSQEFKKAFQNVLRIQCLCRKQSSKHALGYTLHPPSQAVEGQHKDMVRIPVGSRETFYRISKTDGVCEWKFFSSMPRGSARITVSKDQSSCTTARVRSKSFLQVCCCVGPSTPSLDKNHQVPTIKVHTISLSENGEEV

β2-AR [4] = target: T1, β2-AR; test: β-arrestin-2 recruitment assay at β2-AR; format: cell-based; settings: for EC50: ranges from screening experiments with a low number of repeats; for β-arrestin-2 recruitment β2-AR Emax: relative to norepinephrine
Target sequence in this assay (P07550 whole entry): as the sequence (P07550 whole entry) above
Target sequence in this assay (P32121 whole entry partner): as the sequence (P32121 whole entry partner) above

α2A-AR = target: T4, α2A-AR (Homo sapiens, UniProt P08913); test: radioligand binding assay, α2A-AR, [3H]RX821002; settings: radioligand [3H]RX821002; values given as a range are from screening experiments with a low number of repeats
T4 sequence (P08913 1-465): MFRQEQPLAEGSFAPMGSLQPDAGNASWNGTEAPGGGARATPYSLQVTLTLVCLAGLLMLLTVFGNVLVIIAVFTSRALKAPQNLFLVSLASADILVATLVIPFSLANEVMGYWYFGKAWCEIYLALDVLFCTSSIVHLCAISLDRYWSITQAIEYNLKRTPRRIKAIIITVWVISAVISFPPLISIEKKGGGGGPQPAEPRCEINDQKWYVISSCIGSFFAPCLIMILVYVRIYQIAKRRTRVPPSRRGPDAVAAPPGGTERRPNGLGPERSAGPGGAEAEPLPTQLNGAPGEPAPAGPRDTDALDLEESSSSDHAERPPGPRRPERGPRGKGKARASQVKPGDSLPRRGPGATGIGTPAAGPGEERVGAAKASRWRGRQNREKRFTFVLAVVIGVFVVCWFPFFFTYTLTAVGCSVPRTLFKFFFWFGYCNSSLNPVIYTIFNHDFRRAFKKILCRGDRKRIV

[5] = radioligand [3H]CGP12177, values given as a range are from screening experiments with a low number of repeats, read-out: Ki β2-AR [3H]CGP12177
[6] = radioligand [3H]CGP12177, read-out: Ki β1-AR [3H]CGP12177
[7] = n.d. = could not be determined because of lack of activity, ranges from screening experiments with a low number of repeats, read-out: β-arrestin-2 recruitment β1-AR EC50
[8] = radioligand [3H]prazosin, values given as a range are from screening experiments with a low number of repeats, read-out: Ki •1A-AR [3H]prazosin
[9] = n.d. = could not be determined because of lack of activity, read-out: β-arrestin-2 recruitment β2-AR EC50
[10] = β-arrestin-2 recruitment β2-AR EC50, n.d. = could not be determined because of lack of activity
[11] = Ki β1-AR [3H]CGP12177, radioligand [3H]CGP12177

Structure (SMILES) | Ki (β2-AR [1]; [5]) | Ki (β1-AR [2]; [6]) | β-arrestin-2 recruitment β1-AR Emax (β1-AR [3]) | EC50 (β2-AR [4]; [9]) | β-arrestin-2 recruitment β2-AR Emax (β2-AR [4]) | Ki (α2A-AR) | further results
CC(C)N[C@H]1CCc2cc(O)c(O)cc2[C@H]1O (relative stereo) [JS 3-71, cis-2-(isopropylamino)-1,2,3,4-tetrahydronaphthalene-1,6,7-triol trifluoroacetate] | > 50 µM | > 50 µM | – | – | – | – | –
CN[C@@H]1CCc2c(ccc(O)c2O)[C@H]1O [AS443, (5R,6R)-6-(methylamino)-5,6,7,8-tetrahydronaphthalene-1,2,5-triol] | 0.14 µM | 38 µM | 60 % norepinephrine | 0.026 µM | 112 % norepinephrine | 13 µM | EC50 (β1-AR [3]; [7]): 38 µM; Ki (•1A-AR; [8]): 17 µM
CC(C)N[C@@H]1CCc2c(ccc(O)c2O)[C@@H]1O [JS 3-99] | – | – | – | – | 100 % norepinephrine | – | Ki (β2-AR [1]; Ki β2-AR [3H]CGP12177): 1.9 µM; EC50 (β2-AR [4]; [10]): 1.2 µM; Ki (β1-AR [2]; [11]): 49 µM
CC(C)N[C@@H]1CCc2c(ccc(O)c2O)[C@H]1O [AS424A, (R,R)-1,5,6-trihydroxy-N-isopropyl-1,2,3,4-tetrahydronaphthalen-2-aminium TFA] | – | – | 82 % norepinephrine | – | 103 % norepinephrine | 71 µM | EC50 (β1-AR [3]): 1.2 µM; selectivity for β2-AR over β1-AR (β2-AR [1]): high selectivity; Ki (β2-AR [1]; read-out: Ki β2-AR [3H]CGP12177): 0.032 µM; EC50 (β2-AR [4]; [10]): 0.024 µM; Ki (β1-AR [2]; [11]): 2.1 µM
N[C@@H]1CCc2c(ccc(O)c2O)[C@H]1O [AS446, (5R,6R)-6-amino-5,6,7,8-tetrahydronaphthalene-1,2,5-triol×TFA] | 0.68 µM | 16 µM | 56 % norepinephrine | – | 107 % norepinephrine | 15 µM | EC50 (β1-AR [3]; [7]): 18 µM; Ki (•1A-AR): 18 µM; EC50 (β2-AR [4]; [10]): 0.1 µM
NC1CCc2c(ccc(O)c2O)C1 (single isomer, unassigned) [AS LM27] | 7.6 µM | 46 µM | <5 % norepinephrine | 2.1 µM | 84 % norepinephrine | – | –
Oc1ccc2c(c1O)CC[C@H](NC1CCCC1)[C@@H]2O [JS 3-55, (1R,2S)-6-(cyclopentylamino)-5,6,7,8-tetrahydronaphthalene-1,2,5-triol trifluoroacetate] | > 20 µM | > 50 µM | – | – | – | – | –
CNC1CCc2cc(O)c(O)cc2C1 (racemic) [AS LM31] | 80 µM | 44 µM | <5 % norepinephrine | 12 µM | 22 % norepinephrine | – | –
C[Si](C)(C)CN[C@@H]1CCc2c(ccc(O)c2O)[C@H]1O [LM 118, (5R,6R)-6-(((trimethylsilyl)methyl)amino)-5,6,7,8-tetrahydronaphthalene-1,2,5-triol] | 0.2 to 0.5 µM | ≥ 50 µM | 40 % norepinephrine | 0.12 to 0.25 µM | 119 % norepinephrine | 8 to 15 µM | EC50 (β1-AR [3]; [7]): 25 to 70 µM; Ki (•1A-AR; [8]): 5 to 10 µM
Oc1ccc2c(c1O)CC[C@@H](NC1COC1)[C@@H]2O [LM 113, (5R,6R)-6-(oxetan-3-ylamino)-5,6,7,8-tetrahydronaphthalene-1,2,5-triol] | 0.6 to 1.5 µM | ≥ 50 µM | 20 % norepinephrine | 0.2 to 0.4 µM | 115 % norepinephrine | 25 to 45 µM | EC50 (β1-AR [3]; [7]): > 100 µM; Ki (•1A-AR; [8]): ≥ 60 µM
Oc1ccc2c(c1O)CC[C@@H](NC1CCCC1)[C@H]2O [JS 3-65, (1 S,2R)-6-(Cyclopentylamino)-5,6,7,8-tetrahydronaphthalene-1,2,5-triol trifluoroacetate] | 2.5 µM | > 50 µM | – | – | – | – | –
CC(C)(C)CN[C@@H]1CCc2c(ccc(O)c2O)[C@H]1O [LM 117, (5R,6R)-6-(neopentylamino)-5,6,7,8-tetrahydronaphthalene-1,2,5-triol] | 0.25 to 0.7 µM | ≥ 50 µM | 17 % norepinephrine | 0.05 to 0.12 µM | 116 % norepinephrine | 15 to 30 µM | EC50 (β1-AR [3]; [7]): 10 to 20 µM; Ki (•1A-AR; [8]): 10 to 20 µM
Oc1ccc2c(c1O)CC[C@@H](NCC1CC(F)(F)C1)[C@@H]2O [LM 112, (5R,6R)-6-(((3,3-difluorocyclobutyl)methyl)amino)-5,6,7,8-tetrahydronaphthalene-1,2,5-triol] | 0.025 to 0.07 µM | 5 to 12 µM | 45 % norepinephrine | 0.01 to 0.02 µM | 124 % norepinephrine | 8 to 15 µM | EC50 (β1-AR [3]; [7]): 6 to 14 µM; Ki (•1A-AR): 5 to 8 µM
CC(C)N[C@@H]1CCc2cc(O)c(O)cc2[C@H]1O (relative stereo) [JS 3-89, trans-2-(Isopropylamino)-1,2,3,4-tetrahydronaphthalene-1,6,7-triol trifluoroacetate] | > 50 µM | > 50 µM | – | – | – | – | –
N[C@@H]1CCc2cc(O)c(O)cc2C1 [AS LM16] | 76 µM | 83 µM | <5 % norepinephrine | – | <5 % norepinephrine | – | –
NC1CCc2c(ccc(O)c2O)C1 (single isomer, unassigned) [AS LM28] | 29 µM | > 100 µM | <10 % norepinephrine | 11 µM | 77 % norepinephrine | – | –
O=C(O)C(F)(F)F.Oc1ccc2c(c1O)CC[C@H](NC1CCCC1)[C@H]2O [JS 3-51, (1 S,2S)-6-(cyclopentylamino)-5,6,7,8-tetrahydronaphthalene-1,2,5-triol trifluoroacetate] | 0.24 µM | 27 µM | – | 0.12 µM | 93 % norepinephrine | – | –
CNC1CCc2c(ccc(O)c2O)C1 (racemic) [AS LM33] | 46 µM | 90 µM | <10 % norepinephrine | 2.1 µM | 125 % norepinephrine | – | –
N[C@H]1CCc2cc(O)c(O)cc2C1 [AS LM15] | – | 31 µM | <5 % norepinephrine | – | <5 % norepinephrine | – | –
O=C(O)C(F)(F)F.Oc1ccc2c(c1O)CC[C@@H](NC1CCCC1)[C@@H]2O [JS 3-159, (1R,2R)-6-(Cyclopentylamino)-5,6,7,8-tetrahydronaphthalene-1,2,5-triol trifluoroacetate] | 0.025 µM | 7.1 µM | – | 0.018 µM | 97 % norepinephrine | – | –
CC(C)N[C@H]1CCc2c(ccc(O)c2O)[C@H]1O [AS424B, (R,S)-1,5,6-trihydroxy-N-isopropyl-1,2,3,4-tetrahydronaphthalen-2-aminium TFA] | – | – | – | – | 91 % norepinephrine | – | Ki (β2-AR [1]; Ki β2-AR [3H]CGP12177): 0.45 µM; EC50 (β2-AR [4]; [10]): 0.35 µM; Ki (β1-AR [2]; [11]): 24 µM
NC[C@H](O)c1ccc(O)c(O)c1 [noradrenaline, reference compound] | – | – | 100 % norepinephrine | – | 100 % norepinephrine | – | –
CC(C)N[C@H]1CCc2c(ccc(O)c2O)[C@@H]1O [JS 3-97] | – | – | – | – | – | – | Ki (β2-AR [1]; Ki β2-AR [3H]CGP12177): 0.37 µM; Ki (β1-AR [2]; [11]): > 50 µM
